Where two headings read alike, the source gives them in different places.
Legend:
Assay type in all cases: in vivo
Glycine max (GLXMA) [1] = experiment: Post-emergence crop plant compatibility, GLXMA; details: post-emergence, 80 g/ha, effect in comparison to untreated controls
Procedure: (§1) Seeds of monocotyledonous and dicotyledonous weeds and crop plants are placed in sandy loam in plastic or organic planting pots, covered with soil and cultivated in a greenhouse under controlled growth conditions. 2 to 3 weeks after sowing, the test plants are treated at the one-leaf stage. The compounds of the invention, formulated in the form of wettable powders (WP) or as emulsion concentrates (EC), are then sprayed onto the green parts of the plants as aqueous suspension or emulsion with addition of 0.5% additive at a water application rate of 600 l/ha (converted). After the test plants have been kept in the greenhouse under optimum growth conditions for about 3 weeks, the activity of the preparations is rated visually in comparison to untreated controls. For example, 100% activity=the plants have died, 0% activity=like control plants.
(§2) The observed effects on selected crop plants are reported here in comparison to the untreated controls (values in %). The appendices “a”, “b” and “c” give differentiation by dosage used with otherwise the same crop plants tested.

[2] = system: Verconica persica (VERPE); experiment: Post-emergence herbicidal action against VERPE; details: 320 g/ha, VERPE
Summary of the method: (§3)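 Post-emergence greenhouse spray, one-leaf stage, 600 l/ha water plus 0.5% additive; WP or EC formulations; application rates 320 g/ha or lower. Visual % damage vs untreated controls at ~3 weeks.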

Viola tricolor (VIOTR) [3] = experiment: Post-emergence herbicidal action against VIOTR; details: 320 g/ha
Summary of the method: as §3

Zea mays (ZEAMX) [4] = details: for Post-emergence action against ZEAMX in %: crop plant compatibility, effect vs untreated controls; for Post-emergence action against ZEAMX in % (crop plant compatibility): 20 g/ha, effect in comparison to untreated controls
Summary of the method: (§4)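 Visual rating (% effect vs. untreated plants; 100% = plant death) made about 3 weeks after treatment. Plants had been sprayed at one-leaf stage, 2–3 weeks post-sowing, with aqueous WP/EC preparations containing 0.5% additive, 600 l/ha water volume; a, b, c mark dose levels.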

[5] = system: Triticum aestivum (TRZAS); details: crop plant compatibility, effect vs untreated controls
Summary of the method: as §4

Oryza sativa (ORYSA) [6] = details: crop plant compatibility
Summary of the method: as §4

Viola tricolor (VIOTR) [7] = experiment: Pre-emergence herbicidal action against VIOTR; details: 320 g/ha, Viola tricolor
Summary of the method: (§5)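 Dosages of 320 g/ha or less; pre-emergence; WP or EC in aqueous spray, 0.5% additive, 600 l/ha; greenhouse; visual % effect after ~3 wk relative to control pots.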

[8] = system: Verconica persica (VERPE); experiment: Pre-emergence herbicidal action against VERPE
Summary of the method: as §5

Zea mays (ZEAMX) [9] = details: pre-emergence, crop plant compatibility, in comparison to untreated controls
Summary of the method: (§6)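 Crop injury rated visually in percent against untreated plants roughly 3 weeks after treatment (0% no effect, 100% plants dead). Compounds, as WP or EC with 0.5% additive in 600 l/ha water, were applied to the covering soil right after sowing; greenhouse growth. Suffixes a, b, c denote different dosages.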

Brassica napus (BRSNW) [10] = details: crop plant compatibility, in comparison to untreated controls
Summary of the method: as §6

Glycine max (GLXMA) [11] = details: pre-emergence, crop plant compatibility, in comparison to untreated controls
Summary of the method: as §6

[12] = system: Triticum aestivum (TRZAS); details: pre-emergence, crop plant compatibility, in comparison to untreated controls
Summary of the method: as §6

Oryza sativa (ORYSA) [13] = details: pre-emergence, crop plant compatibility, in comparison to untreated controls
Summary of the method: as §6

[14] = system: Alopecurus myosuroides (ALOMY); experiment: Post-emergence herbicidal action against ALOMY; details: 80 g/ha, visual rating about 3 weeks after treatment vs untreated controls (100% = plants have died, 0% = like control plants)
Summary of the method: as §3

Brassica napus (BRSNW) [15] = experiment: Post-emergence crop plant compatibility, BRSNW; details: effect in comparison to untreated controls
Procedure: as §1, §2

[16] = 80 g/ha, effect in comparison to untreated controls
[17] = 320 g/ha, effect in comparison to untreated controls
[18] = 20 g/ha, effect vs untreated controls

Post-emergence action against ZEAMX in % (Zea mays (ZEAMX) [4]; 80 g/ha) [%]	Post-emergence action against ZEAMX in % (Zea mays (ZEAMX) [4]; 320 g/ha) [%]	Post-emergence action against TRZAS in % ([5]; 80 g/ha) [%]	Post-emergence action against TRZAS in % ([5]; 320 g/ha) [%]	Post-emergence action against ORYSA in % (Oryza sativa (ORYSA) [6]; [16]) [%]	Post-emergence action against ORYSA in % (Oryza sativa (ORYSA) [6]; [17]) [%]	Pre-emergence action against ZEAMX in % (Zea mays (ZEAMX) [9]; 80 g/ha) [%]	Pre-emergence action against ZEAMX in % (Zea mays (ZEAMX) [9]; 320 g/ha) [%]	Pre-emergence action against BRSNW in % (Brassica napus (BRSNW) [10]; 80 g/ha) [%]	Pre-emergence action against BRSNW in % (Brassica napus (BRSNW) [10]; 320 g/ha) [%]	Pre-emergence action against GLXMA in % (Glycine max (GLXMA) [11]; 80 g/ha) [%]	Pre-emergence action against TRZAS in % ([12]; 80 g/ha) [%]	Pre-emergence action against TRZAS in % ([12]; 320 g/ha) [%]	Pre-emergence action against ORYSA in % (Oryza sativa (ORYSA) [13]; 80 g/ha) [%]	Pre-emergence action against ORYSA in % (Oryza sativa (ORYSA) [13]; 320 g/ha) [%]	Post-emergence action against BRSNW in % (Brassica napus (BRSNW) [15]; 20 g/ha) [%]	Post-emergence action against BRSNW in % (Brassica napus (BRSNW) [15]; 80 g/ha) [%]	Post-emergence action against ZEAMX in % (crop plant compatibility) (Zea mays (ZEAMX) [4]) [%]	Post-emergence action against TRZAS in % ([5]; 20 g/ha) [%]	Post-emergence action against ORYSA in % (Oryza sativa (ORYSA) [6]; [18]) [%]	Compound	other results
10	10	0	10	0	0	20	20	10	10	0	0	20	0	0						CCOC(=O)COc1nn(-c2ccc(Br)c(C)n2)c(-c2cncc(F)c2)c1Br [Example I-161]	Post-emergence action against GLXMA in % (Glycine max (GLXMA) [1]): 0%; Post-emergence action against VERPE in % [2]: 80%; Post-emergence action against VIOTR in % (Viola tricolor (VIOTR) [3]): 80%; Pre-emergence action against VIOTR in % (Viola tricolor (VIOTR) [7]): 90%; Pre-emergence action against VERPE in % ([8]; dosage 320 g/ha): 80%
10				10		10		20					10		10	20	10	0	0	COC(=O)C1CCCN1C(=O)COc1nn(-c2ccccn2)c(-c2ccc(F)nc2)c1Br (centres unmarked) [Example I-110]	Post-emergence action against ALOMY in % [14]: 80%; Pre-emergence action against VERPE in % ([8]; dosage 80 g/ha): 100%
10		10		0		10	10	10	10	20	0	10	10	10	0	10	10	0	0	COC(=O)C1CCN(C(=O)COc2nn(-c3ccccn3)c(-c3ccc(F)nc3)c2Br)C1 (centres unmarked) [Example I-109]	Pre-emergence action against GLXMA in % (Glycine max (GLXMA) [11]; 320 g/ha): 20%
	20	0	0	0	0	0		0			0	0	0	0		20				O=C(O)C1CCN(C(=O)COc2nn(-c3ccccn3)c(-c3ccc(F)nc3)c2Br)CC1 [Example I-62]	

— patent US20240041042A1, “1-(PYRIDYL)-5-AZINYLPYRAZOLE DERIVATIVES, AND THEIR USE FOR CONTROL OF UNDESIRED PLANT GROWTH” (Bayer Aktiengesellschaft, priority 2020, published 2024)
